Test results as given in patent US20160304957A1, “TREATMENT AND MODULATION OF GENE EXPRESSION AND SKIN AGING” (DSM NUTRITIONAL PRODUCTS LTD., priority 2006, published 2016).

Columns and labels:
RXRγ = assay: QRT-PCR gene expression in HaCaT cells with or without UVA; format: cell-based, human
Method: (§1) HaCaT cells were obtained from Prof. Fusenig, German Cancer Research Centre, Heidelberg. […] The accuracy of cell counting was approximately 99%.
(§2) On day 3 of the experiment, cells were washed six times with Ca/Mg-free PBS containing 2% BSA, and then irradiated with light with a Hönle sun lamp Sol 500 (Dr. Hönle, Plannegg, Germany) at a dose of 270 kJ/m^2 in Ca/Mg-free PBS (2 hour exposure time at […]). The experimental schedule was chosen because the cells had optimal UVA sensitivity after 48 hours in culture. […] Confluent cultures were much less sensitive to irradiation.
(§3) After irradiation, the cells were supplied with fresh β-carotene-containing serum-free medium and kept in the incubator at 37° C., 5% CO2 until harvest of the samples. In experiments in which the half-life of ^1O2 was prolonged by D2O to enhance its effect, PBS was prepared in D2O, instead of in H2O, as it was done for the standard conditions described above. Cells were washed twice in D2O-PBS prior to irradiation in D2O-PBS. After irradiation, cells were maintained with fresh β-carotene-containing serum-free medium. Sham controls were treated in an identical manner, by placing them under the solar simulator but shielded from light.
(§4) Total RNA was isolated by using Trizol™ (Invitrogen, Basel, Switzerland) according to the instructions of the manufacturer. Random-primed cDNA was synthesized using the Superscript pre-amplification system for first strand cDNA synthesis (Invitrogen).
(§5) cDNA corresponding to 10 ng total RNA was used as template to quantify the relative RNA expression of the genes of interest by TaqMan® real time PCR.
(§6) The PCR analyses were carried out in triplicate and in a multiplex setup, using 18S rRNA as a calibrator gene. The rRNA primers were used at a final concentration of 50 nM, the probe at 100 nM. For quantification of the genes of interest, the primer concentrations were optimized for sensitivity of template detection. […] PCR reactions were carried out for 40 cycles of 95° C. for 15 seconds and 60° C. for 1 minute in an ABI7700 (Applied Biosystems, Rotkreuz, Switzerland). Regulation of gene expression was calculated as described in user bulletin #2 provided by the manufacturer. A threshold cycle (“CT”) is the first PCR cycle in which an amplification signal is detected. Expression levels are given as δCT values. The δCT value describes the level of gene expression as the average PCR cycle, in which the gene of interest was detected first (CT value), subtracted by the CT value of the calibrator gene 18S rRNA (CTgene of interest−CTcalibrating gene), 18S rRNA served as a measure for the amount of template in the reaction. Routinely, 18S rRNA was detected between PCR cycle 12 and 13 (SE=standard error) A low δCT corresponds to a high mRNA level.
(§7) HaCaT cells were pretreated for 2 days with 0.5, 1.5 or 3 μM β-carotene. The cells were irradiated with UVA (270 kJ/m^2) either in D2O-containing PBS or in H2O-containing PBS, to analyze ^1O2 inducibility of genes. Gene expression 5 hours after UVA irradiation was analyzed by QRT-PCR. Values are geometric means±standard error from three independent experiments. Upregulations greater than 1.5-fold are labelled in bold black, downregulations below 0.66-fold are bold grey.

RXRα = assay: as above; format: cell-based, human
Method: as §1, §2, §3, §4, §5, §6, §7

skin carcinogenesis = conditions: supplementation, rodents; cited from earlier work
caspase-3 = assay: Caspase-3 activity, CaspACE Assay System; format: cell-based, human
Method: Cells were supplemented with β-carotene for 2 days and prior to UVA irradiation (270 kJ/m^2). Caspase-3 activity was determined at 5 hours after irradiation. Values are mean±standard error of an experiment with four replicates.
Caspase-3 activity 5 hours after UVA irradiation was quantified in five separate experiments using the CaspACE™ Assay System (Promega/Catalys, Switzerland).

[1] = β-Carotene concentration in culture medium during incubation; format: physicochemical; conditions: 24 hours of incubation, irrespective of the presence of cells
Method: β-carotene-containing medium was prepared as follows. Fresh all-E-β-carotene (DSM Nutritional Products, Kaiseraugst, Switzerland) stock solution in THF (containing 0.025% BHT; Fluka Chemie A G, Switzerland) was diluted 1:2 with ethanol and added to cell culture medium to a final concentration of 1.5 μM β-carotene. The solvent concentration in the medium was 0.5% for all treatments. β-carotene-containing medium was prepared fresh for the daily medium changes.

HaCaT cells = assay: Depletion of cellular β-carotene content by UVA irradiation, HPLC; format: in vitro ADME, human; conditions: 270 kJ/m^2 UVA
Method: as §2

TIMP-1 [2] = assay: ELISA of TIMP-1 release into cell culture supernatant of HaCaT cells; format: cell-based, human; conditions: β-carotene, with or without UVA
Method: HaCaT cells were supplemented with 0.5, 1.5, or 3 μM β-carotene for 2 days prior to UVA (270 kJ/m^2) irradiation. MMP-1 and TIMP-1 secretion 24 hours after irradiation was analyzed by ELISA. Each condition was represented by three replicates in the experiment. Values are means±standard error.
Release of MMP-1, and TIMP-1 into cell culture supernatant was determined by ELISA at 24 hours after irradiation. MMP-1 and TIMP-1 release was measured using MMP-1 and TIMP ELISA from CALBIOCHEM (San Diego, Calif., USA). The ELISAs were performed according to the manufacturer's instructions.

TIMP-1 [3] = assay: QRT-PCR gene expression in HaCaT cells with or without UVA; format: cell-based, human
Method: as §1
Vitamin E (RRR-α-tocopherol; DSM Nutritional Products, Kaiseraugst, Switzerland) stock solutions and vitamin E-containing media were prepared as described for β-carotene-containing solutions, except that vitamin E was dissolved in ethanol. In experiments addressing the vitamin E effect, vitamin E was used in a final concentration of 50 μM. Again, the solvent concentration was kept constant at 0.03% ethanol for all conditions.
as §2, with “irradiation. […]” for “irradiation.”
as §5
The PCR analyses were carried out in triplicate and in a multiplex setup, using 18S rRNA as a calibrator gene. […] For quantification of the genes of interest, the primer concentrations were optimized for sensitivity of template detection. […] Regulation of gene expression was calculated as described in user bulletin #2 provided by the manufacturer. A threshold cycle (“CT”) is the first PCR cycle in which an amplification signal is detected. […] The δCT value describes the level of gene expression as the average PCR cycle, in which the gene of interest was detected first (CT value), subtracted by the CT value of the calibrator gene 18S rRNA (CTgene of interest−CTcalibrating gene), 18S rRNA served as a measure for the amount of template in the reaction. Routinely, 18S rRNA was detected between PCR cycle 12 and 13 (SE=standard error) A low δCT corresponds to a high mRNA level.

With CC1=C(/C=C/C(C)=C/C=C/C(C)=C/C=C/C=C(C)/C=C/C=C(C)/C=C/C2=C(C)CCCC2(C)C)C(C)(C)CCC1 [β-carotene, All-E-β-carotene] the “basal or UVA-regulated expression level of RXRγ” value (RXRγ) was “no significant effect”, the RXRγ fold induction (RXRγ; D2O, UVA/βC 0.5 μM) was 1.72 fold and the RXRγ fold induction (RXRγ; D2O, UVA/βC 1.5 μM) was 2.70 fold. It also gave an RXRγ fold induction (RXRγ; D2O, UVA/βC 3 μM) of 1.57 fold, an RXRγ fold induction (RXRγ; D2O, βC 0.5 μM) of 1.47 fold and an RXRγ fold induction (RXRγ; D2O, βC 1.5 μM) of 2.78 fold. It also gave an RXRγ fold induction (RXRγ; D2O, βC 3 μM) of 2.57 fold, an RXRγ fold induction (RXRγ; H2O, UVA/βC 0.5 μM) of 0.61 fold and an RXRγ fold induction (RXRγ; H2O, UVA/βC 1.5 μM) of 0.08 fold. The RXRγ fold induction (RXRγ; H2O, UVA/βC 3 μM) was 0.67 fold, the RXRγ fold induction (RXRγ; H2O, βC 0.5 μM) was 0.39 fold and the RXRγ fold induction (RXRγ; H2O, βC 1.5 μM) was 0.77 fold. The RXRγ fold induction (RXRγ; H2O, βC 3 μM) was 0.33 fold, the “basal or UVA-regulated expression level of RXRα” value (RXRα) was “no significant effect” and the RXRα fold induction (RXRα; D2O, UVA/βC 0.5 μM) was 0.68 fold. It also gave an RXRα fold induction (RXRα; D2O, UVA/βC 1.5 μM) of 0.31 fold, an RXRα fold induction (RXRα; D2O, UVA/βC 3 μM) of 0.38 fold and an RXRα fold induction (RXRα; D2O, βC 0.5 μM) of 1.25 fold. It also gave an RXRα fold induction (RXRα; D2O, βC 1.5 μM) of 0.82 fold, an RXRα fold induction (RXRα; D2O, βC 3 μM) of 1.06 fold and an RXRα fold induction (RXRα; H2O, UVA/βC 0.5 μM) of 0.96 fold. The RXRα fold induction (RXRα; H2O, UVA/βC 1.5 μM) was 0.27 fold, the RXRα fold induction (RXRα; H2O, UVA/βC 3 μM) was 0.58 fold and the RXRα fold induction (RXRα; H2O, βC 0.5 μM) was 0.89 fold. For the same compound, the RXRα fold induction (RXRα; H2O, βC 1.5 μM) was 0.98 fold, the RXRα fold induction (RXRα; H2O, βC 3 μM) was 1.13 fold and the skin carcinogenesis (skin carcinogenesis) was “reduced skin carcinogenesis”. The caspase-3 activation (caspase-3; β-carotene alone, unirradiated) was “Neither UVA nor β-carotene alone activated caspase-3”, the caspase-3 activity (caspase-3; β-carotene with UVA 270 kJ/m^2, 5 hours after irradiation) was “induce caspase-3 activity in a dose-dependent manner” and the “β-carotene concentration in medium remaining” value [1] was “approximately 50%”. The “effect of UVA on cellular β-carotene content” value (HaCaT cells; 0.5 μM β-carotene 2 days) was “did not reduce”, the “cellular β-carotene stores remaining after UVA irradiation” value (HaCaT cells; 1.5 or 3 μM β-carotene 2 days) was “about 13%” and the TIMP-1 protein level (TIMP-1 [2]) was “not significantly influenced”. The TIMP-1 expression (TIMP-1 [3]; UVA/D2O experiments) was “not significantly influenced” and the “TIMP-1 RNA level” value (TIMP-1 [3]; β-carotene, with or without UVA) was “not significantly influenced”.
